Results published in ChEMBL document CHEMBL4020763, “N-(1H-Pyrazol-3-yl)quinazolin-4-amines as a novel class of casein kinase 1δ/ε inhibitors: Synthesis, biological evaluation and molecular modeling studies” (Bioorg Med Chem Lett, 2017).
pIC50: −log10 of the molar value.

Key:
MIA PaCa-2 [1] = assay: Cytotoxicity against human MIAPaCa2 cells by MTT assay; type: functional, cell-based
A549 [2] = assay: Cytotoxicity against human A549 cells by MTT assay; type: functional, cell-based
[3] = molecular target: Dual specificity protein kinase CLK1 (Mus musculus, UniProt P22518); assay: Inhibition of recombinant mouse GST-fused CLK1 expressed in Escherichia coli using RS peptide as substrate after 30 mins in presence of ATP by scintillation counting method
MDA-MB-468 [4] = assay: Growth inhibition of human MDA-MB-468 cells at 100 uM by MTT assay relative to control; type: functional; details: read-out: GI
ZR-75-1 [5] = assay: Cytotoxicity against human ZR-75-1 cells by MTT assay; type: functional, cell-based
MIA PaCa-2 [6] = assay: Growth inhibition of human MIAPaCa2 cells at 100 uM by MTT assay relative to control; type: functional; details: read-out: GI
[7] = Inhibition of porcine brain CK1-delta/epsilon using CSK peptide as substrate after 30 mins in presence of ATP by scintillation counting method; design: species or system Sus scrofa
HCT-15 [8] = assay: Cytotoxicity against human HCT15 cells by MTT assay; type: functional, cell-based
Sus scrofa = organism: Sus scrofa; assay: Inhibition of porcine brain CK1-delta/epsilon at 10 uM using CSK peptide as substrate after 30 mins in presence of ATP by scintillation counting method relative to control
[9] = molecular target: Dual specificity tyrosine-phosphorylation-regulated kinase 1A (Homo sapiens) (UniProt Q13627); assay: Inhibition of recombinant full length human GST-fused DYRK1A expressed in Escherichia coli at 10 uM using RS peptide as substrate after 30 mins in presence of ATP by scintillation counting method relative to control
ZR-75-30 [10] = assay: Growth inhibition of human ZR-7530 cells at 100 uM by MTT assay relative to control; type: functional; details: read-out: GI
HCT-15 [11] = assay: Growth inhibition of human HCT15 cells at 100 uM by MTT assay relative to control; type: functional; details: read-out: GI
[12] = molecular target: Glycogen synthase kinase-3 (Sus scrofa) (UniProt B2LUN4+I6LNT8); assay: Inhibition of porcine brain GSK-3 alpha/beta at 10 uM using YRRAAVPPSPSLSRHSSPHQpSEDEEE as substrate after 30 mins in presence of ATP by scintillation counting method relative to control
Asteroidea = assay: Inhibition of M-phase starfish oocytes CDK1/cyclin B at 10 uM using histone H1 as substrate after 30 mins in presence of ATP by scintillation counting method relative to control
[13] = Growth inhibition of HEK293 cells at 100 uM by MTT assay relative to control; type: cell-based; details: human, read-out: GI
ZR-75-30 [14] = assay: Cytotoxicity against human ZR-7530 cells by MTT assay; type: functional, cell-based
[15] = molecular target: CDK9/cyclin T1 (Homo sapiens) (UniProt O60563+P50750); assay: Inhibition of recombinant human CDK9/cyclin T expressed in insect cells at 10 uM using YSPTSPSYSPTSPSYSPTSPSKKKK as substrate after 30 mins in presence of ATP by scintillation counting method relative to control
BT-20 [16] = assay: Cytotoxicity against human BT20 cells by MTT assay; type: functional, cell-based
[17] = molecular target: Glycogen synthase kinase-3 (Sus scrofa, UniProt B2LUN4+I6LNT8); assay: Inhibition of porcine brain GSK-3 alpha/beta using YRRAAVPPSPSLSRHSSPHQpSEDEEE as substrate after 30 mins in presence of ATP by scintillation counting method
MCF7 [18] = assay: Growth inhibition of human MCF7 cells at 100 uM by MTT assay relative to control; type: functional; details: read-out: GI
CDK2/Cyclin A2 = CDK2/Cyclin A2 (Homo sapiens, UniProt P24941); assay: Inhibition of recombinant human CDK2/cyclin A using histone H1 as substrate after 30 mins in presence of ATP by scintillation counting method; type: protein-complex assay
DU-145 = assay: Growth inhibition of human DU145 cells at 100 uM by MTT assay relative to control; type: functional; details: read-out: GI
[19] = molecular target: Cyclin-dependent kinase 5/CDK5 activator 1 (Homo sapiens) (UniProt Q00535+Q15078); assay: Inhibition of recombinant human CDK5/p25 expressed in Escherichia coli at 10 uM using histone H1 as substrate after 30 mins in presence of ATP by scintillation counting method relative to control
BT-20 [20] = assay: Growth inhibition of human BT20 cells at 100 uM by MTT assay relative to control; type: functional; details: read-out: GI
MDA-MB-468 [21] = assay: Cytotoxicity against human MDA-MB-468 cells by MTT assay; type: functional, cell-based
MDA-MB-231 [22] = assay: Growth inhibition of human MDA-MB-231 cells at 100 uM by MTT assay relative to control; type: functional; details: read-out: GI
[23] = molecular target: CDK2/Cyclin A2 (Homo sapiens) (UniProt P24941+P20248); assay: Inhibition of recombinant human CDK2/cyclin A at 10 uM using histone H1 as substrate after 30 mins in presence of ATP by scintillation counting method relative to control; type: protein-complex assay
PANC-1 [24] = assay: Growth inhibition of human PANC1 cells at 100 uM by MTT assay relative to control; type: functional; details: read-out: GI
A549 [25] = assay: Growth inhibition of human A549 cells at 100 uM by MTT assay relative to control; type: functional; details: read-out: GI
[26] = Inhibition of M-phase starfish oocytes CDK1/cyclin B using histone H1 as substrate after 30 mins in presence of ATP by scintillation counting method; design: species or system Asteroidea
PANC-1 [27] = assay: Cytotoxicity against human PANC1 cells by MTT assay; type: functional, cell-based
MCF7 [28] = assay: Cytotoxicity against human MCF7 cells by MTT assay; type: functional, cell-based
ZR-75-1 [29] = assay: Growth inhibition of human ZR-75-1 cells at 100 uM by MTT assay relative to control; type: functional; details: read-out: GI
MDA-MB-231 [30] = assay: Cytotoxicity against human MDA-MB-231 cells by MTT assay; type: functional, cell-based
[31] = molecular target: Dual specificity protein kinase CLK1 (Mus musculus) (UniProt P22518); assay: Inhibition of recombinant mouse GST-fused CLK1 expressed in Escherichia coli at 10 uM using RS peptide as substrate after 30 mins in presence of ATP by scintillation counting method relative to control
HEK293 = assay: Cytotoxicity against HEK293 cells by MTT assay; type: cell-based; details: Homo sapiens

Chain of Dual specificity protein kinase CLK1 (P22518 whole entry, the tested form may be a part): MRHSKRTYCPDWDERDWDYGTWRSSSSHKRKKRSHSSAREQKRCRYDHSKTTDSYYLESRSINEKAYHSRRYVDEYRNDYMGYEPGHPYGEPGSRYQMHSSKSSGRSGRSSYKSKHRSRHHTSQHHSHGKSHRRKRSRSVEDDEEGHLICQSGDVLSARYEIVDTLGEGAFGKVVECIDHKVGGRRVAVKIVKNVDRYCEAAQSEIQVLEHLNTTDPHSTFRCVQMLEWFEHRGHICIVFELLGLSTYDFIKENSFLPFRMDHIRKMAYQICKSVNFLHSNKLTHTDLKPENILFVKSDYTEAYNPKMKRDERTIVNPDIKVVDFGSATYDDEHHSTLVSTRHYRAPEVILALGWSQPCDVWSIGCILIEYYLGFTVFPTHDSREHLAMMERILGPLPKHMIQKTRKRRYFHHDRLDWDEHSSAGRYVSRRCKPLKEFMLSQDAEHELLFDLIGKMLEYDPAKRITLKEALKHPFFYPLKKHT
Chain of Dual specificity protein kinase CLK1 (Mus musculus) (P22518 whole entry, looked up, the tested form may be a part): as the sequence (P22518 whole entry, the tested form may be a part) above
Chain of Cyclin-dependent kinase 5/CDK5 activator 1 (Homo sapiens) (Q00535 whole entry): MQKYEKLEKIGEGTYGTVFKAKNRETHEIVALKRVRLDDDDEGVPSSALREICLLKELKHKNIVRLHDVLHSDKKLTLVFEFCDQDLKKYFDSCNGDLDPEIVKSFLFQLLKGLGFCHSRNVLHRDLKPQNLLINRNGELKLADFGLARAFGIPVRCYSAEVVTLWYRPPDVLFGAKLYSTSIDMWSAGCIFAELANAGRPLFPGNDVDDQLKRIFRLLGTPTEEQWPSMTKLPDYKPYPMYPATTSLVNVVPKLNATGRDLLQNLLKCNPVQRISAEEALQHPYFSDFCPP
Chain of Cyclin-dependent kinase 5/CDK5 activator 1 (Homo sapiens) (Q15078 99-307 partner limits assumed): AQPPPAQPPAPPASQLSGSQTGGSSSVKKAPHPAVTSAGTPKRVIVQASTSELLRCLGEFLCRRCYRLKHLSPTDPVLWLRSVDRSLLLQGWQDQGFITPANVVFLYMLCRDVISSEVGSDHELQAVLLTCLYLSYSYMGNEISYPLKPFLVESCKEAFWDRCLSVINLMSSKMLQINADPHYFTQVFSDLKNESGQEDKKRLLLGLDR

COc1cc2ncnc(Nc3cc(-c4ccccc4)[nH]n3)c2cc1OC
4.15: pIC50 (HEK293)
5.80: pIC50 [7]
5.03: pIC50 (PANC-1 [27])
4.53: pIC50 (A549 [2])
< 4.00: pIC50 (MIA PaCa-2 [1]) | pIC50 (ZR-75-1 [5]) | pIC50 (HCT-15 [8]) | pIC50 (ZR-75-30 [14]) | pIC50 (BT-20 [16]) | pIC50 (MDA-MB-468 [21]) | pIC50 (MCF7 [28]) | pIC50 (MDA-MB-231 [30])
> 50%: inhibition of growth at 100 µM (MDA-MB-468 [4]) | inhibition of growth at 100 µM (MIA PaCa-2 [6]) | inhibition (Sus scrofa) | inhibition [9] | inhibition of growth at 100 µM (ZR-75-30 [10]) | inhibition of growth at 100 µM (HCT-15 [11]) | inhibition [12] | inhibition (Asteroidea) | inhibition at 100 µM [13] | inhibition [15] | inhibition of growth at 100 µM (MCF7 [18]) | inhibition of growth at 100 µM (DU-145) | inhibition [19] | inhibition of growth at 100 µM (BT-20 [20]) | inhibition of growth at 100 µM (MDA-MB-231 [22]) | inhibition [23] | inhibition of growth at 100 µM (PANC-1 [24]) | inhibition of growth at 100 µM (A549 [25]) | inhibition of growth at 100 µM (ZR-75-1 [29]) | inhibition [31]
< 5.00: pIC50 [3] | pIC50 [17] | pIC50 (CDK2/Cyclin A2) | pIC50 [26]
